Laboratory results as given in patent publication US9212163B2, “Pesticidal compositions and processes related thereto” (Dow AgroSciences LLC, priority 2012, dated 2015).

The compounds below were run on Beet Armyworm (BAW) (Spodoptera exigua) (assay: Bioassay on Beet Armyworm (BAW), 128-well diet tray assay). Details: Table 3: Assay Results Part 1.
Format: in vivo
Procedure: Certain molecules disclosed in this document were tested against BAW, CEW and CL using procedures described in the following examples. In the reporting of the results, the “BAW & CEW & CL Rating Table” was used (See Table Section).
Bioassays on BAW (Spodoptera exigua)
Bioassays on BAW were conducted using a 128-well diet tray assay. One to five second instar BAW larvae were placed in each well (3 mL) of the diet tray that had been previously filled with 1 mL of artificial diet to which 50 μg/cm^2 of the test compound (dissolved in 50 μL of 90:10 acetone-water mixture) had been applied (to each of eight wells) and then allowed to dry. Trays were covered with a clear self-adhesive cover, and held at 25° C., 14:10 light-dark for five to seven days. Percent mortality was recorded for the larvae in each well; activity in the eight wells was then averaged. The results are indicated in the tables entitled “Table 3: Assay Results Part 1” and “Table 4: Assay Results Part 2” (See Table Section).

| Compound | BAW Rating |
| --- | --- |
| Cc1cc(/C=C/C(c2cc(Cl)cc(Cl)c2)C(F)(F)F)ccc1C(=O)NCc1ccc(Cl)nc1 (stereo not shown) [AC7] | A (50-100) |
| Cc1cc(/C=C/C(c2cc(Cl)cc(Cl)c2)C(F)(F)F)ccc1C(=O)NCc1ccccc1F (stereo not shown) [AC9] | A (50-100) |
| Cc1cc(/C=C/C(c2cc(Cl)cc(Cl)c2)C(F)(F)F)ccc1C(=O)NC1CSC1 (stereo not shown) [AC10] | A (50-100) |
| Cc1cc(/C=C/C(c2cc(Cl)cc(Cl)c2)C(F)(F)F)ccc1C(=O)NCc1ccccc1 (stereo not shown) [AC11] | A (50-100) |
| Cc1cc(/C=C/C(c2cc(Cl)cc(Cl)c2)C(F)(F)F)ccc1C(=O)NCc1ccccn1 (stereo not shown) [AC12] | A (50-100) |
| Cc1cc(/C=C/C(c2cc(Cl)cc(Cl)c2)C(F)(F)F)ccc1C(=O)NC1CS(=O)(=O)C1 (stereo not shown) [AC13] | A (50-100) |
| Cc1cc(/C=C/C(c2cc(Cl)cc(Cl)c2)C(F)(F)F)ccc1C(=O)NCc1cnc(Cl)s1 (stereo not shown) [AC15] | A (50-100) |
| Cc1cc(/C=C/C(c2cc(Cl)cc(Cl)c2)C(F)(F)F)ccc1C(=O)NC(C)(C)c1ccccn1 (stereo not shown) [AC16] | A (50-100) |
| Cc1cc(/C=C/C(c2cc(Cl)cc(Cl)c2)C(F)(F)F)ccc1C(=O)NNc1ccccc1F (stereo not shown) [AC17] | A (50-100) |
| Cc1cc(/C=C/C(c2cc(Cl)cc(Cl)c2)C(F)(F)F)ccc1C(=O)NCc1ncccn1 (stereo not shown) [AC18] | A (50-100) |
| Cc1cc(/C=C/C(c2cc(Cl)cc(Cl)c2)C(F)(F)F)ccc1C(=O)NCc1ccoc1 (stereo not shown) [AC20] | A (50-100) |
| Cc1cc(/C=C/C(c2cc(Cl)c(Cl)c(Cl)c2)C(F)(F)F)ccc1C(=O)NCc1ccc(Cl)nc1 (stereo not shown) [AC22] | A (50-100) |
| Cc1cc(/C=C/C(c2cc(Cl)c(Cl)c(Cl)c2)C(F)(F)F)ccc1C(=O)NC1CSC1 (stereo not shown) [AC23] | A (50-100) |
| Cc1cc(/C=C/C(c2cc(Cl)c(Cl)c(Cl)c2)C(F)(F)F)ccc1C(=O)NCc1cnc(Cl)s1 (stereo not shown) [AC26] | A (50-100) |
| Cc1cc(/C=C/C(c2cc(Cl)c(Cl)c(Cl)c2)C(F)(F)F)ccc1C(=O)NC(C)(C)c1ccccn1 (stereo not shown) [AC27] | A (50-100) |
| O=C(NCc1ccc(Cl)nc1)c1ccc(/C=C/C(c2cc(Cl)c(Cl)c(Cl)c2)C(F)(F)F)cc1Cl (stereo not shown) [AC28] | A (50-100) |
| O=C(NC1CSC1)c1ccc(/C=C/C(c2cc(Cl)c(Cl)c(Cl)c2)C(F)(F)F)cc1Cl (stereo not shown) [AC29] | A (50-100) |
| O=C(NC1CS(=O)(=O)C1)c1ccc(/C=C/C(c2cc(Cl)c(Cl)c(Cl)c2)C(F)(F)F)cc1Cl (stereo not shown) [AC30] | A (50-100) |
| O=C(NCc1ccc(Cl)nc1)c1ccc(/C=C/C(c2cc(Cl)c(Cl)c(Cl)c2)C(F)(F)F)cc1Br (stereo not shown) [AC31] | A (50-100) |
| O=C(NC1CSC1)c1ccc(/C=C/C(c2cc(Cl)c(Cl)c(Cl)c2)C(F)(F)F)cc1Br (stereo not shown) [AC32] | A (50-100) |

| Compound | BAW Rating |
| --- | --- |
| O=C(NC1CS(=O)(=O)C1)c1ccc(/C=C/C(c2cc(Cl)c(Cl)c(Cl)c2)C(F)(F)F)cc1Br (stereo not shown) [AC33] | A (50-100) |
| O=C(NC1CSC1)c1ccc(/C=C/C(c2cc(Cl)c(Cl)c(Cl)c2)C(F)(F)F)cc1C(F)(F)F (stereo not shown) [AC34] | A (50-100) |
| O=C(NC1CS(=O)(=O)C1)c1ccc(/C=C/C(c2cc(Cl)c(Cl)c(Cl)c2)C(F)(F)F)cc1C(F)(F)F (stereo not shown) [AC35] | A (50-100) |
| O=C(NCc1ccc(Cl)nc1)c1ccc(/C=C/C(c2cc(Cl)c(Cl)c(Cl)c2)C(F)(F)F)cc1C(F)(F)F (stereo not shown) [AC36] | A (50-100) |
| Cc1cc(/C=C/C(c2ccc(Cl)c(Cl)c2)C(F)(F)F)ccc1C(=O)NCc1ccc(Cl)nc1 (stereo not shown) [AC37] | A (50-100) |
| Cc1cc(/C=C/C(c2cc(Cl)c(F)c(Cl)c2)C(F)(F)F)ccc1C(=O)NCc1ccc(Cl)nc1 (stereo not shown) [AC38] | A (50-100) |
| Cc1cc(/C=C/C(c2cc(Cl)cc(Cl)c2)C(F)(F)F)ccc1C(=O)NCc1cncnc1 (stereo not shown) [AC39, 4-((E)-3-(3,5-Dichlorophenyl)-4,4,4-trifluorobut-1-enyl)-2-methyl-N-((pyrimidin-5-yl)methyl)benzamide] | A (50-100) |
| Cc1cc(/C=C/C(c2cc(Cl)cc(Cl)c2)C(F)(F)F)ccc1C(=O)NCC(=O)NC1CC1 (stereo not shown) [AC40] | A (50-100) |
| Cc1cc(/C=C/C(c2cc(Cl)cc(Cl)c2)C(F)(F)F)ccc1C(=O)NCC(=O)NC1CSC1 (stereo not shown) [AC41] | A (50-100) |
| Cc1cc(/C=C/C(c2cc(Cl)cc(Cl)c2)C(F)(F)F)ccc1C(=O)NCc1nc2ccccc2s1 (stereo not shown) [AC42] | A (50-100) |
| Cc1cc(/C=C/C(c2cc(Cl)cc(Cl)c2)C(F)(F)F)ccc1C(=O)NCc1cnccn1 (stereo not shown) [AC43] | A (50-100) |
| Cc1cc(/C=C/C(c2cc(Cl)cc(Cl)c2)C(F)(F)F)ccc1C(=O)NN(C)c1ccccc1F (stereo not shown) [AC45] | A (50-100) |
| Cc1cc(/C=C/C(c2cc(Cl)cc(Cl)c2)C(F)(F)F)ccc1C(=O)NCc1ccc(Cl)cc1 (stereo not shown) [AC48] | A (50-100) |
| O=C(NCc1ccc(Cl)nc1)c1ccc(/C=C/C(c2cc(Cl)cc(Cl)c2)C(F)(F)F)cc1F (stereo not shown) [AC49] | A (50-100) |
| Cc1cc(/C=C/C(c2cc(Cl)cc(Cl)c2)C(F)(F)F)ccc1C(=O)NCc1nccn1C (stereo not shown) [AC50] | A (50-100) |
| Cc1cc(/C=C/C(c2cc(Cl)cc(Cl)c2)C(F)(F)F)ccc1C(=O)NCC(=O)N(C)CC(F)(F)F (stereo not shown) [AC51] | A (50-100) |
| Cc1cc(/C=C/C(c2cc(Cl)c(F)c(Cl)c2)C(F)(F)F)ccc1C(=O)NC1CCOCC1 (stereo not shown) [AC52] | A (50-100) |
| Cc1cc(/C=C/C(c2cc(Cl)c(F)c(Cl)c2)C(F)(F)F)ccc1C(=O)NCc1ccc(Cl)cn1 (stereo not shown) [AC53] | A (50-100) |
| Cc1cc(/C=C/C(c2cc(Cl)c(F)c(Cl)c2)C(F)(F)F)ccc1C(=O)NCc1ccnc(Cl)c1 (stereo not shown) [AC54] | A (50-100) |
| CC(C)(C)OC(=O)CNC(=O)c1ccc(/C=C/C(c2cc(Cl)c(Cl)c(Cl)c2)C(F)(F)F)cc1Br (stereo not shown) [AC58] | A (50-100) |

| Compound | BAW Rating |
| --- | --- |
| Cc1cc(/C=C/C(c2cc(Cl)cc(Cl)c2)C(F)(F)F)ccc1C(=O)Nc1ccc(Cl)nc1 (stereo not shown) [AC59] | A (50-100) |
| O=C(NC1CSC1)c1ccc(/C=C/C(c2cc(Cl)cc(Cl)c2)C(F)(F)F)cc1F (stereo not shown) [AC61] | A (50-100) |
| O=C(CNC(=O)c1ccc(/C=C/C(c2cc(Cl)cc(Cl)c2)C(F)(F)F)cc1F)NCC(F)(F)F (stereo not shown) [AC62] | A (50-100) |
| O=C(NCc1ccc(Cl)nc1)c1ccc(/C=C/C(c2cc(Cl)c(F)c(Cl)c2)C(F)(F)F)cc1Br (stereo not shown) [AC63] | A (50-100) |
| O=C(CNC(=O)c1ccc(/C=C/C(c2cc(Cl)c(Cl)c(Cl)c2)C(F)(F)F)cc1Cl)NCC(F)(F)F (stereo not shown) [AC64, (E)-2-Chloro-N-(2-oxo-2-((2,2,2-trifluoroethyl)amino)ethyl)-4-(4,4,4-trifluoro-3-(3,4,5-trichlorophenyl)but-1-en-1-yl)benzamide] | A (50-100) |
| O=C(NCc1ccc(Cl)nc1)c1ccc(/C=C/C(c2cc(Cl)c(F)c(Cl)c2)C(F)(F)F)cc1F (stereo not shown) [AC65] | A (50-100) |
| O=C(CNC(=O)c1ccc(/C=C/C(c2cc(Cl)c(Cl)c(Cl)c2)C(F)(F)F)cc1Br)NCC(F)(F)F (stereo not shown) [AC66] | A (50-100) |
| O=C(NC1CSC1)c1ccc(/C=C/C(c2cc(Cl)c(F)c(Cl)c2)C(F)(F)F)cc1F (stereo not shown) [AC67] | A (50-100) |
| O=C(CNC(=O)c1ccc(/C=C/C(c2cc(Cl)c(F)c(Cl)c2)C(F)(F)F)cc1F)NCC(F)(F)F (stereo not shown) [AC68] | A (50-100) |
| Cc1cc(/C=C/C(c2cc(Cl)c(F)c(Cl)c2)C(F)(F)F)ccc1C(=O)NCC(=O)NCC(F)(F)F (stereo not shown) [AC69] | A (50-100) |
| COc1cc(/C=C/C(c2cc(Cl)c(F)c(Cl)c2)C(F)(F)F)ccc1C(=O)NC1CSC1 (stereo not shown) [AC71] | A (50-100) |
| CCc1cc(/C=C/C(c2cc(Cl)c(F)c(Cl)c2)C(F)(F)F)ccc1C(=O)NCc1ccc(Cl)nc1 (stereo not shown) [AC72] | A (50-100) |
| O=C(NCc1ccc(C(F)(F)F)nc1)c1ccc(/C=C/C(c2cc(Cl)c(Cl)c(Cl)c2)C(F)(F)F)cc1Br (stereo not shown) [AC75] | A (50-100) |
| Cc1cc(/C=C/C(c2cc(Cl)c(F)c(Cl)c2)C(F)(F)F)ccc1C(=O)NCc1cc(Cl)ccn1 (stereo not shown) [AC77] | A (50-100) |
| Cc1cc(/C=C/C(c2cc(Cl)c(Cl)c(Cl)c2)C(F)(F)F)ccc1C(=O)NCC(=O)NCC(F)(F)F (stereo not shown) [AC78] | A (50-100) |
| O=C(CNC(=O)c1ccc(/C=C/C(c2cc(Cl)c(F)c(Cl)c2)C(F)(F)F)cc1Br)NCC(F)(F)F (stereo not shown) [AC79, (E)-2-Bromo-4-(3-(3,5-dichloro-4-fluorophenyl)-4,4,4-trifluorobut-1-en-1-yl)-N-(2-oxo-2-((2,2,2-trifluoroethyl)amino)ethyl)benzamide] | A (50-100) |
| CCc1cc(/C=C/C(c2cc(Cl)c(F)c(Cl)c2)C(F)(F)F)ccc1C(=O)NCC(=O)NCC(F)(F)F (stereo not shown) [AC80] | A (50-100) |
| Cc1cc(/C=C/C(c2cc(Cl)cc(Cl)c2)C(F)(F)F)ccc1C(=O)NCC(=O)NC1CS(=O)(=O)C1 (stereo not shown) [AC81] | A (50-100) |
